Measurements reported in US8329141B2, “Locoregional internal radionuclide ablation of abnormal tissues” (Board of Regents, The University of Texas System, priority 2004, dated 2012).

What was measured:
[1] = tested on: rat mammary cancer 13762F tumor cells; assay: In vivo tumor growth after intratumoral injection of radiopharmaceuticals (rat mammary cancer model); parameters: species or system Fischer 344 female rats
Method: The radionuclides YCl3, ^111In—Cl, and ^201Tl—Cl were obtained from a local supplier of radioisotopes, Iso-Tex Diagnostics (Friendswood, Tex.). YCl3 obtained from the supplier was in an acidic preparation with a pH of 2-3, and was subsequently diluted in saline to a final pH of about 4-6 before injection. Initial activities of ^111In—Cl and YCl3 were about 200-500 mCi/ml, and dilution were made with preservative-free saline. YIMA was prepared by co-precipitation, as set forth in U.S. Ser. No. 10/724,027. Briefly, 500 μl of FeCl3 (1 mg Fe/ml) was added to 30 μl of ^90Y chloride (20-40 μCi/30 μl), and either 30 μl of NaOH (1.0 N) or 10 μl of NH4OH (20.0%) was added to the solution to reach a pH of about 7.0 to 9.0. Co-precipitated YIMA radiopharmaceutical macroaggregates were then separated from remaining soluble radionuclides by centrifuging the reactions from 1500 RPM to 3000 RPM×5 minutes, and filtered using a Millipore Nylone (size: 0.45 μm, diameter: 13 mm) to isolate the radiopharmaceutical macroaggregates.
The rat model of in vivo tumor growth was generated as follows. On day zero, 100,000 rat mammary cancer 13762F tumor cells were implanted in a volume of 0.15 ml into the right thigh muscle of Fischer 344 female rats weighing approximately 160 grams. […] YIMA was injected in a volume of 0.2 ml on days 3-7 after tumor implantation. Tumor sizes and body weights of the rats were monitored regularly (5 times a week) for several weeks, or until the tumors grew beyond 2.5 cm, at which time the rats were euthanized.

CSF proteins = assay: Binding to CSF proteins (Centrifree filter separation); format: in vitro ADME, human (patients); details: 0.2, 0.5 or 1 μCi added to diluted CSF, 20 minutes; physiologic range, all concentrations tested
Method: To test the hypothesis that local sequestration of ^111In—Cl is due to protein binding, both ^111In—Cl and YCl3 were tested for binding to CSF and serum proteins. Serum proteins were obtained from residual baseline serum and CSF proteins were obtained from patients participating in other research protocols who had consented to blood sampling. To determine the level of ^111In—Cl protein binding, 0.2, 0.5, or 1 μCi of ^111In—Cl was added to diluted CSF (0.125 or 0.5) or diluted serum protein (0.125 and 0.25) and incubated for 20 minutes. To determine the level of YCl3 protein binding, 0.2, 0.5, or 1 μCi of YCl3 was added to diluted CSF (0.063 or 0.5) or diluted serum protein (0.063 and 0.375), and incubated for 20 minutes. After incubation, free radiopharmaceuticals were separated from protein bound ^111In—Cl or YCl3 using Amicon Centrifree Micropartition filters in a single centrifugation step at 3000 g for 15 minutes according to manufacturer's instructions (Amicon, Beverly, Mass.). The percent binding of YCl3 or ^111In—Cl to the CSF or serum protein was then calculated. As shown in FIG. 6 and FIG. 7 respectively, both YCl3 and ^111In—Cl bind avidly to CSF and serum protein within the physiologic range (a dilution factor between 0.2 and 0.6) at all concentrations tested. At room temperature, both YCl3 and ^111In—Cl have greater than 95% binding to serum proteins.

serum proteins = assay: Binding to serum proteins (Centrifree filter separation); format: in vitro ADME, human (patients); details: 0.2, 0.5 or 1 μCi added to diluted serum protein, 20 minutes; physiologic range, all concentrations tested
Method: To test the hypothesis that local sequestration of ^111In—Cl is due to protein binding, both ^111In—Cl and YCl3 were tested for binding to CSF and serum proteins. Serum proteins were obtained from residual baseline serum and CSF proteins were obtained from patients participating in other research protocols who had consented to blood sampling. To determine the level of ^111In—Cl protein binding, 0.2, 0.5, or 1 μCi of ^111In—Cl was added to diluted CSF (0.125 or 0.5) or diluted serum protein (0.125 and 0.25) and incubated for 20 minutes. To determine the level of YCl3 protein binding, 0.2, 0.5, or 1 μCi of YCl3 was added to diluted CSF (0.063 or 0.5) or diluted serum protein (0.063 and 0.375), and incubated for 20 minutes. After incubation, free radiopharmaceuticals were separated from protein bound ^111In—Cl or YCl3 using Amicon Centrifree Micropartition filters in a single centrifugation step at 3000 g for 15 minutes according to manufacturer's instructions (Amicon, Beverly, Mass.). The percent binding of YCl3 or ^111In—Cl to the CSF or serum protein was then calculated. As shown in FIG. 6 and FIG. 7 respectively, both YCl3 and ^111In—Cl bind avidly to CSF and serum protein within the physiologic range (a dilution factor between 0.2 and 0.6) at all concentrations tested. At room temperature, both YCl3 and ^111In—Cl have greater than 95% binding to serum proteins. […]

[2] = Biodistribution and projected human radiation dosimetry after intravenous or intramuscular injection; format: in vivo, female Fisher rats; details: for human dosimetry estimate, kidney / human dosimetry estimate, red marrow: from rat biodistribution
Method: To evaluate the radiation toxicity of YCl3 after intravenous or intramuscular injection, parallel experiments were performed to evaluate the biodistribution and projected human radiation dosimetry of both ^111In—Cl and YCl3. The experiments used three female Fisher rats (140-160 grams) for each set of injections. Each rat was injected intravenously, or was injected intramuscularly in the right thigh, with 0.05 mCi of YCl3 or ^111In—Cl (with no carrier added) in 0.1 ml saline (pH 5-6). The effect of initial exposure of the radiopharmaceuticals to interstitial fluid was estimated by serum protein binding experiments using Millipore Centrifree filters as set forth in Example 2. Organs including the right and left femur, as well as the right and left thigh muscles, were harvested from each rat 7 days after injection. Human dosimetry for each radiopharmaceutical was constructed using established anthropomorphic models.

[3] = intratracheal instillation (Hirano et al. 1990); cited from earlier work
[4] = locoregional administration in rats

Which results are given for [Cl][90Y]([Cl])[Cl] [YCl3, Yttrium-90 chloride]?
tumor development ([1]; 1 mCi intratumoral on day 10 in 0.1-0.2 ml saline, FIG. 2): significantly suppressed; tumor growth ([1]; 100 μCi intratumoral on day 10 in 0.1-0.2 ml saline, FIG. 2): not significantly suppressed; tumor development ([1]; 200 μCi intratumoral on day 10 in 0.1-0.2 ml saline, FIG. 2): significantly suppressed; tumor development ([1]; 500 μCi intratumoral on day 10 in 0.1-0.2 ml saline, FIG. 2): significantly suppressed; tumor growth ([1]; FIG. 3, in 0.2-0.3 ml saline, YCl3 0.3, 0.6, 1.5 mCi, ^111In—Cl 0.6, 1.2, 2.4, 4.8 mCi, ^67Ga 0.6 mCi): significantly suppressed tumor growth; tumor growth ([1]; FIG. 4, in 0.5 ml saline, YCl3 0.5, 1.0, 2.0 mCi, ^111In—Cl 1.0, 4.0 mCi, FDG 1.0, 2.0, 3.0 mCi, ^67Ga—Fe 1.77 mCi): significantly suppressed tumor growth; tumor growth ([1]; at least 200 μCi intratumoral, FIG. 2): clearly suppressed; dose equivalent for humans at which mortality occurred [1, 4]: 350 mCi/70 Kg; lowest dose with consistently observed local tumor suppression effects [1, 4]: 0.2 mCi; mortality after locoregional administration ([1]; rats, sporadically, at high dose equivalents for humans (e.g., 350 mCi/70 Kg)): some mortality was observed; binding to CSF (CSF proteins): bind avidly; binding to serum protein (serum proteins): bind avidly; skeletal distribution ([2]; estimated from the left femur (opposite to the injection site)): about 16%; radiation uptake in the right thigh muscle ([2]; intramuscular injection in right thigh): high; radiation uptake in right femur versus contralateral organ ([2]; intramuscular injection in right thigh, decreasing over time to): 3 times higher; radiation uptake in right femur versus contralateral organ ([2]; intramuscular injection in right thigh, initial): 6 times higher; human dosimetry estimate, kidney ([2]; intramuscular): 1.47 cGy/mCi; human dosimetry estimate, red marrow ([2]; intramuscular): 0.65 cGy/mCi; organs with the highest uptake ([2]; intravenous injection, 0.05 mCi in 0.1 ml saline): spleen, liver, and kidney; human dosimetry estimate, kidney ([2]; intravenous): 13.1 cGy/mCi; human dosimetry estimate, red marrow ([2]; intravenous): 5.77 cGy/mCi; pulmonary retention half-life [3]: 169 days
